Measurements published in PMC10991509, “A phase I study of ATR inhibitor gartisertib (M4344) as a single agent and in combination with carboplatin in patients with advanced solid tumours” (British Journal of Cancer, 2024).
Like-named read-outs stand apart in the source and are kept apart here.

Experiments:
[1] = test system: ɣ-H2AX; assay: ɣ-H2AX in ex vivo-stimulated CD45+ lymphocytes; set-up: species or system human; settings: 350 mg QD, n = 3, highest tested dose; 3 h post first dose
Text: Exploratory objectives were to assess ATR inhibition and DNA damage by measuring phosphorylation of the Ser-139 residue of the histone variant H2AX (ɣ-H2AX) post-treatment in peripheral blood mononuclear cells (cohorts A2 and C), describe the mutational landscape and its relationship to BOR in patients with selected biomarkers (cohort C) and to determine changes in allele frequencies in mutations of interest and their association with clinical benefit (molecular response; cohorts A2 and C). Further details on the definitions of LOF mutations and methods of biomarker collection are described in the Supplementary Materials.
To determine H2AX phosphorylation (ɣ-H2AX) in lymphocytes, 100 µL of whole blood was stimulated with 62 µM 4NQO (4-nitroquinoline N-oxide, Sigma, UK) for 1 hour at 37°C. In parallel, 100 µL of whole blood was incubated with 10% DMSO (dimethyl sulfoxide, Sigma, UK) as an unstimulated control sample. The samples were subsequently treated (for 10 minutes at 37°C) with BD Lyse & Fix Solution (Becton Dickinson, USA) and the whole blood cells were permeabilized with ice-cold methanol (90% final concentration) for 30 minutes on ice. […] Cells were then analyzed using a FacsCanto II (Becton Dickinson, USA) collecting 10,000 events. […]

[2] = target: T1, UGT1A1 (Rattus norvegicus, UniProt Q64550); assay: UGT1A1 inhibition in rat liver microsomes; assay type: in vitro ADME; settings: value (standard error)
T1 construct: from tissue; host or cells: rat liver microsomes
T1 sequence (Q64550 30-535): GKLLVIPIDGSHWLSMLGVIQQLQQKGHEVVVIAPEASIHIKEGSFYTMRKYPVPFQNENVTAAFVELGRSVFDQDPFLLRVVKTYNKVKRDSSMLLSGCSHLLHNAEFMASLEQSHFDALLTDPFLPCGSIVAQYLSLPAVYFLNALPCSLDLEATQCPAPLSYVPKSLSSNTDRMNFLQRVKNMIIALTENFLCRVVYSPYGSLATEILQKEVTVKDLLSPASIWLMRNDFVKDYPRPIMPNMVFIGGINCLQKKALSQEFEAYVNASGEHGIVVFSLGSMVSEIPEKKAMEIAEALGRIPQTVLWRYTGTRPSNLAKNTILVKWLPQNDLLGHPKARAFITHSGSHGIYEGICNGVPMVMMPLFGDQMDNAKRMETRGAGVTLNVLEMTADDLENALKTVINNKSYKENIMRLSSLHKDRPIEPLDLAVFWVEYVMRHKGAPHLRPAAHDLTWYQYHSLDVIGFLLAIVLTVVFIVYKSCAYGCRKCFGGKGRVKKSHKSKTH

[3] = Plasma pharmacokinetics of gartisertib; assay type: in vivo, human; settings: for clearance: read-out: drug clearance
Text: The secondary objectives for cohorts A, A2, and B1 were to assess antitumour activity and PK. Endpoints associated with antitumour activity included confirmed best overall response (BOR), according to RECIST v1.1. PK endpoints included PK parameter estimates, derived from plasma concentration-time data. Please see the Supplementary Materials for details on further PK endpoints and assessments as well as the PK assessment schedule (Supplementary Table S2).
Categorical variables (such as incidence of a TEAE) were summarised using frequency counts and percentages, along with 2-sided exact Clopper–Pearson 95% confidence intervals (CIs). TEAEs observed were summarised by System Organ Class and Preferred Term according to the Medical Dictionary for Regulatory Activities (versions 23.0 and 24.0). Standard non-compartmental methods were used to determine PK parameters.
Blood samples were collected according to the Schedule of Assessments in order to measure gartisertib (and metabolites where appropriate) plasma concentrations. PK parameters included maximum observed plasma concentration (Cmax), time to reach maximum observed plasma concentration (Tmax), terminal half-life, area under the concentration–time curve (AUC) from time zero extrapolated to infinity, apparent oral clearance, and apparent volume of distribution during the terminal phase as well as Cmax and AUC accumulation ratios. Please see Table S2 for the PK assessment schedule.

[4] = target: UGT1A1 (Canis lupus familiaris, UniProt A0A8I3S535); assay: UGT1A1 inhibition in dog liver microsomes
UGT1A1 (Canis lupus familiaris, UniProt A0A8I3S535), sequence (A0A8I3S535 entry or part of it): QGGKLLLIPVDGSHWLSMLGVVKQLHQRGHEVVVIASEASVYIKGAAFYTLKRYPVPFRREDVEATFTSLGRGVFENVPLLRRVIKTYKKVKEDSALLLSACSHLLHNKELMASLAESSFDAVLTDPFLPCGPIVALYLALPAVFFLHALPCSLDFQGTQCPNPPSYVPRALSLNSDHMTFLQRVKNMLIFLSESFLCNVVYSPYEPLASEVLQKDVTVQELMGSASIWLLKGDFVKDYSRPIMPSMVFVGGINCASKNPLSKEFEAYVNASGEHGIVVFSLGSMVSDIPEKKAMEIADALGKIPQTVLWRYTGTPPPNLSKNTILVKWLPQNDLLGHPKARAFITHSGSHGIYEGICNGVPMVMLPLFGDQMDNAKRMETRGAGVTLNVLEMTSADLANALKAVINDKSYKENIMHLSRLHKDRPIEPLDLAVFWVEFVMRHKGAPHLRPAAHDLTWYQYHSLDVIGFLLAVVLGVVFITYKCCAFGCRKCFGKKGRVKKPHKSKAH

In the case of Nc1nn2cc(F)cnc2c1C(=O)Nc1cncc(F)c1N1CCC(C(=O)N2CCN(C3COC3)CC2)CC1 [gartisertib, Gartisertib], the “target inhibition of ɣ-H2AX” value [1] is reported as “Complete target inhibition”, the IC50 [2] is reported as over 50 µM and the “accumulation following multiple gartisertib doses” value ([3]; cohort A) is reported as “less than 2 fold”. For the same compound, the “urinary excretion of gartisertib” value ([3]; cohort A2) was “minor route of elimination”, the “time median plasma concentrations remained above the lower limit of quantification (1.00 ng/mL)” value ([3]; cohort A2, 250 mg dose) was at most 24 h and the “time median plasma concentrations remained above the lower limit of quantification (1.00 ng/mL)” value ([3]; cohort A2, doses other than 250 mg) was “up to 8 hours”. For the same compound, the “accumulation compared with day 1” value ([3]; cohort A, 450 mg dose) was “no accumulation”, the “accumulation of AUC0-t at day 8 compared with day 1” value ([3]; cohort A, 1200 mg dose group) was 1.9 fold and the “accumulation of Cmax at day 8 compared with day 1” value ([3]; cohort A, 1200 mg dose group) was 1.6 fold. The “time of peak median plasma gartisertib concentration” value ([3]; cohort A, 1200 mg group) was 4 hours post dose, the “time median gartisertib concentrations remained above the lowest level of quantification (1.00 ng/mL)” value ([3]; cohort A, 450, 700, 1050 and 1200 mg groups) was “up to 24 hours post dose” and the “exposure (Cmax and AUC) versus dose” value ([3]; cohorts A, A2, and B1, high variability) was “dose-proportional exposure”. It also gave a clearance ([3]; human, plasma, oral, cohort A2, day 1) of 3450 to 8580 mL/min, a clearance ([3]; human, plasma, oral, cohort A2, day 8) of 3980 to 7070 mL/min and a half-life ([3]; human, plasma, oral, cohorts A, A2, and B1, read-out: half-life (t1/2)) of 120 to 300 min. It also gave a half-life ([3]; human, plasma, oral, cohort A, four highest dose levels, read-out: geometric mean terminal half-life) of 133 to 277 min, a Vd ([3]; human, plasma, oral, cohort A, four highest dose levels, read-out: volume of distribution based on the terminal elimination phase following extravascular administration) of 1480 to 4060 L and an IC50 [4] of over 50 µM.
